The results in this text go back to patent US20220079948A1, “COMPOSITIONS AND METHODS FOR SUPPRESSING AND/OR TREATING HIV-INFECTION AND/OR A RELATED CLINICAL CONDITION THEREOF” (Indiana University Research And Technology Corporation, priority 2018, published 2022).

Common to all, as to format: cell-based, human
The subject of experiment [1] is S1P1 surface expression in SupT1 cells stably expressing tamoxifen-inducible HIV-1SF2-Nef-estrogen receptor construct (Nef-ER). The experiment is described as follows: S1P1 cell surface staining (fluorescence cytometry), tamoxifen-activated Nef-ER cells. The settings on record: 5 μM FRAX597, Nef activated with tamoxifen (1 μM) 16 hours, FIG. 1A/1D. As for the experimental part:
(§1) S1P1 cell surface staining. For assessing Nef-dependent S1P1 regulations, stably transfected T cells (SupT) resulting in estrogen inducible Nef expression (Nef-ER) were used (see Lee J. H. et al. HIV Activates the Tyrosine Kinase Hck to Secrete ADAM Protease-Containing Extracellular Vesicles. EBIOMEDICINE 2018, 28:151-161). Upon treatment with tamoxifen (1 μM; established using CD4 downregulation) for 16 hours, fluorescence cytometry analysis was performed with an anti-S1P1 monoclonal antibody coupled to eFluor 660 (SW4GYPP, EBIOSCIENCE™).
(§2) HIV-Nef Leads to S1P1 Downregulation and Impaired Migration of T cells to S1P1 Gradients. The effect of Nef on regulation of S1P1 surface expression was examined using a recombinant human T cell line (SupT1), which stably expresses a tamoxifen inducible Nef (Nef-ER). Upon treatment with tamoxifen (1 μM) for 16 hours (as established for CD4 downregulation—see e.g., Walk S. F. et al., Design and use of an inducibly activated human immunodeficiency virus type 1 Nef to study immune modulation. J VIROL 2001; 75 (2):834-843), fluorescence cytometry analysis was performed with an anti-S1P1 monoclonal antibody coupled to eFluor 660 (SW4GYPP, EBIOSCIENCE™). […] To determine whether there was a specific pathway involved in HIV-Nef dependent S1P1, downregulation, PAK2 signaling was tested. […]

The subject of experiment [2] is S1P1 surface expression in SupT1 wildtype (SupT1) cells. Put plainly: S1P1 cell surface staining (fluorescence cytometry), mock transfected / control SupT1 cells. The conditions noted are these: PAK2 inhibition (5 μM FRAX597) in mock transfected cells. The method, then: as §1, §2
Experiment [3] has as its system Nef-ER cells (SupT1) migration towards S1P gradient. Put plainly: Migration assay through collagen I-coated transwell chambers towards S1P. The settings on record: pretreatment with PAK2 inhibitor (5 μM); 4HT-activated Nef-ER cells; 100 nM S1P, 4 hours, 37° C.; FIG. 1B. As for the experimental part:
Migration assay. 4-Hydroxy tamoxifen (4HT) activated SupT1 control and Nef-ER cells were labeled with 2.5 uM Calcein-AM, washed using centrifugation and resuspended in phenol red free RPMI containing 0.1% fatty acid free BSA. These cells were loaded on the top chamber of collagen I-coated 4 micron transwell chambers as previously described (see, e.g., Iino J. et al. Platelet-derived sphingosine 1-phosphate induces migration of Jurkat T cells. LIPIDS HEALTH DIS 2014, 13:150). Briefly, cells were allowed to transmigrate,
This downregulation can lead to reduced chemotactic migration towards S1P as evidenced from experiments when 4 HT activated. SupT1I control and Nef-ER cells were tested for migration through collagen I-coated transwell chambers towards S1P gradients as previously described for Jurkat T cells (Iino J. et al. 2015).

Consider `CCn1c(=O)c(-c2ccc(-c3cncs3)cc2Cl)cc2cnc(Nc3ccc(N4CCN(C)CC4)cc3)nc21` [FRAX597], for which the S1P1 surface expression entry is on record as “not only restored S1P1 surface expression, but also increased S1P1 surface expression” in experiment [1]; “restored S1P1 surface expression” in experiment [1] (listed as FRAX 597); “downregulation of S1P1” in experiment [2]; “downregulation of S1P” in experiment [2] (listed as PAK2 inhibitor). Moreover, the “Migration to bottom chamber containing S1P” value in experiment [3] is reported as “not only restored the effect of NEF-ER but also showed significant increase in migration”.
